Results on nine molecules are retold here after US12678433B2, “Compounds for treatment of hemolysis-and inflammasome-associated diseases” (New York Blood Center, Inc., priority 2020, dated 2026).

The subject of data set [1] is purified naïve B cells from healthy donors. As to conditions: for effect on plasma cell differentiation without or with heme: 2.5 μM compound, without or with 5 μM heme; for inhibition of B cell proliferation / inhibition of plasma cell differentiation: at the highest concentrations. As to the method:
Hemin and RBC lysate preparation. Hemin, dissolved in dimethyl sulfoxide (DMSO), stock concentration 10 mM, was diluted to 100 μM with serum-free RPMI 1640 culture medium just prior to addition to B cell cultures. For short-term experiments lasting less than 24 hr, a final concentration of 10 μM hemin was used whereas for longer-term culture up to 7 days, 2.5-5 μM final heme concentration was used. RBC lysates were freshly prepared (containing ~80 g/L hemoglobin) for same day use. Briefly, 4 ml whole blood from healthy donors was passed through Acrodisc WBC syringe filter (Pall Corporation) to remove white blood cells followed by two washes with Dulbecco's Phosphate Buffered Saline (D-PBS) (200×g, 10 min at room temperature with no brake) for removal of platelets. The RBC pellet was lysed with 3 times volume of distilled water for 10 min at 37° C. Cellular debris was pelleted by centrifugation at 4000×g for 10 min at 4° C. The RBC lysate was transferred to a new tube and 1/9 volume of 10×D-PBS added.
Cell isolation and culture. Peripheral blood mononuclear cells (PBMCs) were prepared by Ficoll (GE Healthcare) density gradient centrifugation from healthy donor leukopak products as well as from sickle peripheral blood apheresis waste bags. Human naïve and memory B cells were isolated from PBMCs using a human memory B Cell Isolation Kit (Miltenyi Biotec) by collecting CD27− B cells (naïve B cells) and CD27+ B cell (memory B cells) separately. […] RPMI 1640 culture medium was used for all cell culture experiments (supplemented with 10% FBS, 100-unit penicillin-streptomycin, […], 1 mM sodium pyruvate, all from Thermo Fisher Scientific). Purified B cells were stained with CFSE (Cat #: C34554, Thermo Fisher Scientific) and cultured in U-bottom 96 well plates (2.5×10^5/well/200 μl culture medium) in the presence of goat anti-human IgA+IgG+IgM (H+L) F(ab′)2 fragment (2.5 μg/ml, Jackson ImmunoResearch), CD154 (10 ng/ml, R&D Systems) and CpG (ODN 7909, 1 nM, Cat #: tlrl-2006-1) without IL-2 for analysis of only CD38+ plasmablast differentiation or with IL-2 (5 ng/ml, Cat #:1081-IL-020, R&D Systems) in experiments to detect CD27^hiBlimp-1+ plasma cells. In addition, heme and various inhibitors were added to the cultures at the start point and incubated for 7 days.
(§1) Cultured cells: stimulated B cells were transferred into U bottom 96 well plate and washed with 200 μl MACS buffer (D-PBS containing 0.5% BSA and 2 mM EDTA) at 300×g for 5 min at 4° C. After one wash, cells were stained for surface expression of CD19, CD38, CD27 using 25 μl staining buffer (anti-CD19, CD38, CD27 antibodies, diluted 200 fold with MACS buffer) for 30 min at 4° C. After one wash with 200 μl MACS buffer, cells were resuspended in 100 μl D-PBS and 50 μl Fixable Viability Dye eFluor™ 780 (1000 fold diluted with D-PBS, Thermo Fisher Scientific) was added for dead cell detection for 5 min at room temperature. Cells were washed one time with MACS buffer and 100 μl D-DPS was added just before flow cytometric analysis (LSRFortessa flow cytometer, BD Bioscience). For intracellular staining of IgG, Blimp-1 and HO-1, samples were first washed with 200 μl MACS buffer before addition of 150 μl Fixation/Permeabilization buffer (Thermo Fisher Scientific) for 45 min at 4° C. After fixation, samples were washed twice with 1× Permeabilization buffer (Thermo Fisher Scientific) and stained with 25 μl intracellular staining buffer (anti-human IgG, DOCK8, Blimp-1, HO-1 antibodies, diluted 200 fold with 1× Permeabilization buffer) for 45 min at 4° C., after which the cells were washed twice with Permeabilization buffer and 100p D-DPS was added prior to flow cytometric analysis.

The test system of a further data set is HO-1. The data set is described as follows: HO-1 expression in stimulated B cells. The data set is classed as cell-based, human. As to conditions: for HO-1 upregulation: 2.5 μM compound with 5 μM heme. The text has this:
HO-1 is a key enzyme for heme degradation with multiple biologic activities attributed to its enzymatic byproducts. We analyzed HO-1 expression levels in human B cells before and after stimulation with our polyclonal B cell activation cocktail. […] We also found higher HO-1 levels in DOCK8^hi plasma cells (FIG. 8B).

Data set [2] has as its system NLRP3 inflammasome pathway. As to the kind of experiment: NLRP3 inflammasome activation, IL-1β secretion by LPS-primed monocytes. The data set is classed as cell-based, human. As to conditions: in the presence/absence of hemin. As to the method:
FIG. 13A-D depicts human monocytes isolated from peripheral blood were cultured with LPS for 3 hours to prime pro-IL-1β production followed by addition of various NLRP3 pathway agonists to trigger IL-1β secretion without or with therapeutic reagents including hemin, quinine or hemin plus quinine (all at 2.5 μM concentration for all experiments except the dose response studies in FIGS. 13B and C). Levels of IL-1β, IL-6 and TNF-α in the culture supernatants was analyzed 30 min (for ATP treatment) or 2 hours (for nigericin and imiquimod) after addition of NLRP3 agonists. FIG. 13A: The effect of hemin, quinine and hemin plus quinine on IL-1β secretion triggered by various NLRP3 agonists. FIG. 13B: The dose dependent effect of hemin, quinine and hemin plus quinine. FIG. 13C: The effect of QA, CQ, AQ, and DHA in the presence/absence of hemin. FIG. 13D: The effect of hemin, quinine, or hemin plus quinine on IL-6 and TNF-α.

Data set [3] deals with naïve B cells from Allo(−) and Allo(+) SCD patients. As to the kind of experiment: 7-day stimulated naïve B cell culture from SCD patients. Conditions: for effect on heme-mediated inhibition of plasmablast differentiation: SnPPIX 2.5 μM, heme 2.5 μM. Type of data set: cell-based, human. On the procedure: Human samples. All studies were approved by the institutional Review Boards of the New York Blood Center (NYBC) and Montefiore Health Center. […] The blood samples from SCD patients were processed within 18 hours after collection. For circulating DOCK8 expression studies in healthy controls, peripheral blood samples from de-identified, race-matched healthy donors were used. Leukocyte enriched products from de-identified healthy donors were used for purification of B cells for in vitro culture studies.
Cell isolation and culture. Peripheral blood mononuclear cells (PBMCs) were prepared by Ficoll (GE Healthcare) density gradient centrifugation from healthy donor leukopak products as well as from sickle peripheral blood apheresis waste bags. Human naïve and memory B cells were isolated from PBMCs using a human memory B Cell Isolation Kit (Miltenyi Biotec) by collecting CD27− B cells (naïve B cells) and CD27+ B cell (memory B cells) separately. […] In addition, heme and various inhibitors were added to the cultures at the start point and incubated for 7 days.
as §1

For a further data set, the system named is DOCK8. As to the kind of experiment: DOCK8 expression and DOCK8hi/DOCK8lo subsets in stimulated B cells. Conditions: quinine in the presence of heme. The data set is classed as cell-based, human. From the text: We next tested the effect of cell-free heme on DOCK8 signaling during B cell differentiation. […] Heme treatment led to inhibition of CD27^hiBlimp-1^+ plasma cell differentiation (FIG. 2D, p=0.0195).

A further data set concerns SCD mice. The data set is described as follows: RBC alloimmunization in SCD mice after huGPA RBC transfusion (anti-GPA antibody in plasma). Type of data set: in vivo, mouse. Conditions: QA 12 mg/kg intraperitoneally twice per day. On the procedure:
FIG. 10A-C. Effects of heme and quinine on mouse B cell differentiation in vitro: Splenic B cells were purified from C57BL/6J mice (n=3), stained with CFSE and cultured (5×10^4/well) for 7 days in the presence of anti-mouse IgM, IgG F(ab)′2 (10 μg/ml), anti-mouse CD40 antibody (1 μg/ml) and CpG (ODN1826) (1 μg/ml) without or with different doses of quinine and in the absence or presence of 2.5 μM or 5 μM concentration of hemin. Fold difference in proliferated B cells (FIG. 10A) and CD138+ plasma B cells (FIG. 10B) are shown. FIG. 10C: Representative experiment in SCD mice following transfusion of RBCs expressing human GPA (huGPA RBCs) collected from mice transgenic for human GPA in the absence or presence of quinine (QA). Briefly, mice were transfused twice with […] of huGPA RBCs, each transfusion given one week apart. Mice were treated intraperitoneally twice per day with QA (12 mg/kg, reported to maintain serum quinine levels at 0.5~1 μM) or the same volume PBS. Levels of anti-GPA antibody in plasma were measured 7 days after the last transfusion by flow cytometry.

For data set [4] the following is noted: QA 12 mg/kg intraperitoneally twice per day; cited from earlier work.

As to `CCN(CC)Cc1cc(Nc2ccnc3cc(Cl)ccc23)ccc1O` [AQ, amodiaquine], the “effect on plasma cell differentiation without or with heme” value in data set [1] is recorded as “inhibited plasma cell differentiation in the absence or presence of heme”. Besides, the HO-1 upregulation entry in the data set on HO-1 is “not”. The “effect of other hemin binding small molecules on the inflammasome activation pathway” value (shortened to “effect … on the inflammasome activation pathway”) in data set [2] is given as “no inhibitory effect”.
Take `NCC(=O)O.[C-]#[O+].[C-]#[O+].[C-]#[O+].[Cl][Ru]` [CORM-3, carbon monoxide releasing molecule-3]: in data set [1], the “inhibition of B cell proliferation” value is given as 38.7%±5.0% and the “inhibition of plasma cell differentiation” value was 91.2%±2.9%.
`CCN(CC)CCCC(C)Nc1ccnc2cc(Cl)ccc12` (stereo not shown) [CQ, chloroquine]: in data set [1], the “effect on plasma cell differentiation without or with heme” value is “inhibited plasma cell differentiation in the absence or presence of heme”. Besides, in the data set on HO-1, the HO-1 upregulation result is recorded as “not”. Further, the “effect … on the inflammasome activation pathway” value in data set [2] is given as “no inhibitory effect”.
With `C[C@H]1[C@@H](O)O[C@@H]2O[C@@]3(C)CC[C@H]4[C@H](C)CC[C@@H]1[C@@]24OO3` [DHA, dihydroartemisinin], the “effect … on the inflammasome activation pathway” value in data set [2] is given as “no inhibitory effect”.
As to `C=Cc1c2[n-]c(c1C)/C=c1\[n-]/c(c(C)c1C=C)=C\c1[n-]c(c(CCC(=O)O)c1C)C=c1[n-]/c(c(C)c1CCC(=O)O)=C\2.[Sn+4]` [SnPPIX, tin protoporphyrin IX], in data set [1] (SnPPIX 2.5 μM with heme 2.5 μM), the “effect on heme-mediated inhibition of plasmablast cell differentiation” value is “reversed”. Further, the effect on differentiation result in data set [1] (SnPPIX alone 2.5 μM) was “no effect”. Also, the “frequency of CD38+ plasmablasts” value in data set [1] (SnPPIX alone 2.5 μM, vs 6.3%±2.7%) is recorded as 8.1%±3.5%. The “effect on B cell proliferation” value in data set [1] (heme 2.5 μM, SnPPIX 2.5 μM, alone or together) was “little to no effect”. The “effect on heme-mediated inhibition of plasmablast differentiation” value in data set [3] (Allo(+) SCD patients) was “less effect”; in data set [3] (Allo(−) SCD patients) it was “reversed heme-mediated inhibition”. Besides, the “B cell proliferative responses, Allo(+) versus Allo(−)” value in data set [3] (in the presence of SnPPIX 2.5 μM) is “comparable”.
Take `Cl.Cl.NCCNc1ncc(C(N)=O)c(Nc2cccc(C(F)(F)F)c2)n1` [Syk Inhibitor II]: in the data set on HO-1 (SYK inhibitor relative to no SYK inhibitor), the “HO-1 in stimulated B cells” value was “induction of HO-1”.
On to `C=CC1=C(C)/C(=C/C2=NC(=C\c3[nH]c(/C=C4\NC(=O)C(C)=C4C=C)c(C)c3CCC(=O)O)/C(CCC(=O)O)=C2C)NC1=O` [biliverdin], for which, in data set [1], the “inhibition of B cell proliferation” value is 13.3%±3.5% and the “inhibition of plasma cell differentiation” value is given as 68.4%±18.6%.
Take `C=C[C@H]1C[N@@]2CC[C@H]1C[C@H]2[C@H](O)c1ccnc2ccc(OC)cc12` [quinine, (R)-(6-Methoxyquinolin-4-yl)[(1S,2S,4S,5R)-5-vinylquinuclidin-2-yl]methanol]: the “effect on plasma cell differentiation without or with heme” value in data set [1] is reported as “required the presence of heme”. The “cytotoxic effects (viability studies)” value in data set [1] (except at the highest doses of heme plus quinine) was “minimal cytotoxic effects”. For the same molecule, the “effect on resistance to heme suppression” value in data set [3] (Allo(+) patients, quinine plus heme) is “reversed resistance to heme suppression”. The “effect on heme-mediated suppression of plasma cells” value in data set [3] (Allo(−) SCD patients, quinine plus heme) is reported as “further increased heme-mediated suppression”. Further, in data set [3] (both groups of SCD patients), the “effect on plasma cell differentiation in the absence of heme” value is listed as “weak but significant inhibitory effect”. Besides, the “effect on DOCK8 expression” value in the data set with DOCK8 is recorded as “no significant effect”. In addition, the “RBC alloimmunization levels in vivo” value with SCD mice was “did not lower”. The serum quinine levels in data set [4] is 0.5~1 μM.

B1: hemopexin: a heme scavenging protein (protein, UniProt P02790 24-462, looked up)
Hemopexin: TPLPPTSAHGNVAEGETKPDPDVTERCSDGWSFDATTLDDNGTMLFFKGEFVWKSHKWDRELISERWKNFPSPVDAAFRQGHNSVFLIKGDKVWVYPPEKKEKGYPKLLQDEFPGIPSPLDAAVECHRGECQAEGVLFFQGDREWFWDLATGTMKERSWPAVGNCSSALRWLGRYYCFQGNQFLRFDPVRGEVPPRYPRDVRDYFMPCPGRGHGHRNGTGHGNSTHHGPEYMRCSPHLVLSALTSDNHGATYAFSGTHYWRLDTSRDGWHSWPIAHQWPQGPSAVDAAFSWEEKLYLVQGTQVYVFLTKGGYTLVSGYPKRLEKEVGTPHGIILDSVDAAFICPGSSRLHIMAGRRLWWLDLKSGAQATWTELPWPHEKVDGALCMEKSLGPNSCSANGPGLYLIHGPNLYCYSDVEKLNAAKALPQPQNVTSLLGCTH
Take B1: the “effect of pre-incubation with hemopexin on inhibition by RBC lysate or free heme” value in data set [1] (hemopexin 2.5 μM, RBC lysate 1 g/L hemoglobin or heme 2.5 μM) is “reversed the inhibitory effect”.
